Reference: patent US6001331A, “Method of imaging amyloid deposits” (Warner-Lambert Company, priority 1998, dated 1999)
Like-named read-outs stand apart in the source and are kept apart here.

Assays:
[1] = target: T1, βA(1-40) amyloid aggregates (Homo sapiens, UniProt P05067); assay: Competition assay with Thioflavin T (ThT) for binding to β(1-40) amyloid aggregates, fluorescence 96-well plate
T1 construct: lyophilized β(1-40) protein powder (which may be purchased from BACHEM); purchased BACHEM
T1 sequence (P05067 672-711 limits assumed): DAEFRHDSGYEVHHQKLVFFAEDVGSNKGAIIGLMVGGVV
Text: Amyloid aggregates containing β(1-40) protein can also be made by methods well known to those skilled in the art. See, for example, Burdick D., Soreghan B., Kwon M., Kosmoski J., Knauer M., Henschen A., Yates J., Cotman C., and Glabe C. Assembly and aggregation properties of synthetic Alzheimer's A4/β amyloid peptide analogs. J. Biol. Chem., 267:546-554 (1992), which is hereby incorporated by reference. Briefly, lyophilized β(1-40) protein powder (which may be purchased from BACHEM) was dissolved at 10 mg/mL in hexafluoro-2-propanol and subsequently diluted to 500 μg/mL in 25 mM sodium phosphate buffer, pH 6 to induce the α-helix to β-sheet transition resulting in aggregate formation.
(§1) The ability of compounds of Formula I to compete with Thioflavin T (ThT) for binding to amyloid aggregates was measured using fluorescence in a 96-well fluorescence plate assay. As a compromise between sensitivity and signal and to facilitate comparisons between different amyloid fibrils, ThT is present at a concentration equal to the Kmapp of the particular amyloid fibril type and fibril concentrations yielding a similar fluorescence intensity are used. Insulin: 0.5 μM ThT, 2 μg per well. β(1-40): 20 μM ThT, 5 μg/well. All solutions are in 25 mM sodium phosphate buffer, pH 6.0, and the assay is performed at room temperature.
(§2) Using a multichannel pipettor, 100 μL of dilutions of the compound to be tested (0.001-30 μM final concentration in 3-fold steps) are placed in the bottom of Corning U-well polystyrene plates (Corning Company, Corning, N.Y.). 50 μL of ThT are then added to each well. The amyloid fibrils are then added to each well in a volume of 100 μL rapidly to mix the well contents. The plates are read within 5 to 30 minutes in a Millipore Cytofluor 2350 96-well fluorescence plate reader using an excitation filter of 440 nm (20 nm bandpass) and an emission filter of 485 nm (20 nm bandpass). ThT dye blanks were used to correct for the minimal fluorescence background which are subtracted from all data.
(§3) Results are expressed as % maximal fluorescence (no competing compound). […]

[2] = target: Insulin amyloid aggregates; assay: Competition assay with Thioflavin T (ThT) for binding to insulin amyloid aggregates, fluorescence 96-well plate; details: 0.5 μM ThT, 2 μg per well fibrils, 25 mM sodium phosphate pH 6.0, room temperature
Protocol: Burke M. J. and Rougevie M. A., Cross-β Protein Structures. I. Insulin Fibrils. […] Briefly, lyophilized insulin protein powder dissolved at 10 mg/mL in 50 mM HCl was alternately heated to 95° C. and frozen in dry ice to form amyloid aggregates.
as §1
as §2, with “The plates are read within 5 to 30 minutes in a Millipore Cytofluor 2350 96-well fluorescence plate reader using an excitation filter of 440 nm (20 nm bandpass) and an emission filter of 485 nm (20 nm bandpass).” left out
as §3

[3] = 20 μM ThT, 5 μg/well fibrils, 25 mM sodium phosphate pH 6.0, room temperature, read-out: βA(1-40), IC50

SMILES	IC50 [1]	IC50 [2]	IC50 [1, 3]
C=CC[n+]1c(/C=C/c2ccc(N(C)C)cc2)sc2ccccc21 [Example 10, (E)-2-[2-(4-Dimethylaminophenyl)vinyl]-3-allylbenzothiazol-3-ium bromide]	0.3 µM	0.012 µM	
CCCC[n+]1c(/C=C/c2ccc(N(C)C)cc2)sc2ccccc21 [Example 11, (E)-2-[2-(4-Dimethylaminophenyl)vinyl]-3-butylbenzothiazol-3-ium iodide]		0.027 µM	0.16 µM
CN(C)c1ccc(/C=C/c2sc3ccc(Cl)cc3[n+]2C)cc1 [Example 13, (E)-5-Chloro-2-[2-(4-dimethylaminophenyl)vinyl]-3-methylbenzothiazol-3-ium iodide]		0.0052 µM	0.43 µM
CN(C)c1ccc(/C=C/c2sc3ccc(F)cc3[n+]2Cc2ccccc2)cc1 [Example 15, (E)-2-[2-(4-Dimethylaminophenyl)vinyl]-3-benzyl-5-fluorobenzothiazol-3-ium bromide]	0.17 µM	0.032 µM	
Cc1ccc2sc(/C=C/c3ccc(N(C)C)cc3)[n+](C)c2c1 [Example 16, (E)-2-[2-(4-Dimethylaminophenyl)vinyl]-3,5-dimethylbenzothiazol-3-ium iodide]		0.0075 µM	0.4 µM
Cc1ccc2c(c1)sc(/C=C/c1ccc(N(C)C)cc1)[n+]2C [Example 17, (E)-2-[2-(4-Dimethylaminophenyl)vinyl]-3,6-dimethylbenzothiazol-3-ium iodide]		0.006 µM	0.18 µM
Cc1ccc2c(c1)sc(/C=C/c1ccc(N(C)C)cc1)[n+]2Cc1ccccc1 [Example 18, (E)-3-Benzyl-2-[2-(4-dimethylaminophenyl)vinyl]-6-methylbenzothiazol-3-ium bromide]	0.13 µM	0.05 µM	
CCCCCCC[n+]1c(/C=C/c2ccc(N(C)C)cc2)sc2cc(OC)ccc21 [Example 20, (E)-2-[2-(4-Dimethylaminophenyl)vinyl]-3-heptyl-6-methoxybenzothiazol-3-ium iodide]		0.04 µM	0.14 µM
CN(C)c1ccc(/C=C/c2sc3cc([N+](=O)[O-])ccc3[n+]2C)cc1 [Example 21, (E)-2-[2-(4-Dimethylaminophenyl)vinyl]-3-methyl-6-nitrobenzothiazol-3-ium toluene-4-sulfonate]		0.012 µM	1 µM
CCn1c(/C=C/c2ccc(N(C)C)cc2)[s+]c2ccc3ccccc3c21 [Example 22, (E)-2-[2-(4-Dimethylaminophenyl)vinyl]-1-ethylnaphtho[1,2-d]thiazol-3-ium toluene-4-sulfonate]		0.041 µM	0.21 µM
CN(C)c1ccc(/C=C/c2sc3cc4ccccc4cc3[n+]2C)cc1 [Example 23, (E)-2-[2-(4-Dimethylaminophenyl)vinyl]-3-methylnaphtho[2,3-d]thiazol-3-ium iodide]		0.12 µM	0.12 µM
CN(C)c1ccc(/C=C/c2sc3c4ccccc4ccc3[n+]2C)cc1 [Example 24, (E)-2-[2-(4-Dimethylaminophenyl)vinyl]-3-methylnaphtho[2,1-d]thiazol-3-ium iodide]		0.041 µM	0.21 µM
CN(C)c1ccc(/C=C/c2sc3ccccc3[n+]2Cc2ccc(F)cc2)cc1 [Example 25, (E)-2-[2-(4-Dimethylaminophenyl)vinyl]-3-(4-fluorobenzyl)benzothiazol-3-ium bromide]	0.12 µM	0.042 µM	
CN(C)c1ccc(/C=C/c2sc3ccccc3[n+]2Cc2ccc(-c3ccccc3)cc2)cc1 [Example 26, (E)-3-Biphenyl-4-ylmethyl-2-[2-(4-dimethylaminophenyl)vinyl]benzothiazol-3-ium iodide]		0.034 µM	0.24 µM
CN(C)c1ccc(/C=C/c2sc3ccccc3[n+]2Cc2ccc3ccccc3c2)cc1 [Example 27, (E)-2-[2-(4-Dimethylaminophenyl)vinyl]-3-naphthalen-2-ylmethylbenzothiazol-3-ium bromide]	0.12 µM	0.013 µM	
CN(C)c1ccc(/C=C/c2sc3ccccc3[n+]2Cc2cccc(C(=O)c3ccccc3)c2)cc1 [Example 29, (E)-3-(3-Benzoylbenzyl)-2-[2-(4-dimethylaminophenyl)vinyl]benzothiazol-3-ium bromide]	0.23 µM	0.13 µM	

SMILES	IC50 [1]	IC50 [2]	IC50 [1, 3]
CN(C)c1ccc(/C=C/c2sc3ccccc3[n+]2Cc2cccc(Oc3ccccc3)c2)cc1 [Example 30, (E)-2-[2-(4-Dimethylaminophenyl)vinyl]-3-(3-phenoxybenzyl)benzothiazol-3-ium bromide]	0.12 µM	0.18 µM	
CN(C)c1ccc(/C=C/c2sc3ccccc3[n+]2CCCc2ccccc2)cc1 [Example 31, (E)-2-[2-(4-Dimethylaminophenyl)vinyl]-3-(3-phenylpropyl)benzothiazol-3-ium iodide]		0.21 µM	0.2 µM
CN(C)c1ccc(/C=C/c2sc3ccccc3[n+]2CCCC(c2ccccc2)c2ccccc2)cc1 [Example 33, (E)-2-[2-(4-Dimethylaminophenyl)vinyl]-3-(4,4-diphenylbutyl)benzothiazol-3-ium iodide]		0.21 µM	0.46 µM
CN(C)c1ccc(/C=C/c2sc3ccccc3[n+]2CCCOCc2ccccc2)cc1 [Example 34, (E)-3-(3-Benzyloxypropyl)-2-[2-(4-dimethylaminophenyl)vinyl]benzothiazol-3-ium iodide]		0.052 µM	0.14 µM
CN(C)c1ccc(/C=C/c2sc3ccccc3[n+]2CCCCCOc2ccccc2)cc1 [Example 37, (E)-2-[2-(4-Dimethylaminophenyl)vinyl]-3-(5-phenoxypentyl)benzothiazol-3-ium iodide]		0.08 µM	0.17 µM
CN(C)c1ccc(/C=C/c2sc3ccccc3[n+]2CCC2CCCCC2)cc1 [Example 38, (E)-3-(2-Cyclohexylethyl)-2-[2-(4-dimethylaminophenyl)vinyl]benzothiazol-3-ium iodide]		0.052 µM	0.12 µM
CCCCCCC[n+]1c(/C=C/c2ccc(N(C)C)c3ccccc23)sc2ccccc21 [Example 39, (E)-2-[2-(4-Dimethylaminonaphthalen-1-yl)vinyl]-3-heptylbenzothiazol-3-ium iodide]		0.04 µM	0.16 µM
COc1ccc2c(c1)sc(/C=C/c1ccc(N(C)C)c3ccccc13)[n+]2C [Example 41, (E)-2-[2-(4-Dimethylaminonaphthalen-1-yl)vinyl]-6-methoxy-3-methylbenzothiazol-3-ium iodide]		0.026 µM	0.43 µM
CN(C)c1ccc(/C=C/c2sc3ccc4ccccc4c3[n+]2C)c2ccccc12 [Example 42, (E)-2-[2-(4-Dimethylaminonaphthalen-1-yl)vinyl]-1-methylnaphtho[1,2-d]thiazol-1-ium toluene-4-sulfonate]		0.042 µM	0.25 µM
CCCCCCC[n+]1c(/C=C/c2ccc(N(CC)CC)cc2)sc2ccccc21 [Example 44, (E)-2-[2-(4-Diethylaminophenyl)vinyl]-3-heptylbenzothiazol-3-ium iodide]		0.12 µM	0.14 µM
CCCCCCC[n+]1c(/C=C/c2ccc(N(CCCC)CCCC)cc2)sc2ccccc21 [Example 45, (E)-2-[2-(4-Dibutylaminophenyl)vinyl]-3-heptylbenzothiazol-3-ium iodide]		0.09 µM	0.6 µM
CCCCCCC[n+]1c(/C=C/c2ccc(N3CCCC3)cc2)sc2ccccc21 [Example 46, (E)-3-Heptyl-2-[2-[(4-pyrrolidin-1-yl)phenyl]vinyl]benzothiazol-3-ium iodide]		0.042 µM	0.16 µM
Nc1ccc(/N=N/c2nc3ccccc3s2)c2ccccc12 [Example 48, 4-(Benzothiazol-2-ylazo)naphthalen-1-ylamine]		0.11 µM	0.12 µM
COc1ccc2nc(/N=N/c3ccc(N(C)C)cc3)sc2c1 [Example 49, 2-[[4-(Dimethylamino)phenyl]azo]-6-methoxybenzothiazole]		0.7 µM	3.2 µM
CN(C)c1ccc(/N=N/c2nc3ccc(Cl)cc3s2)cc1 [Example 50, 6-Chloro-2-[[4-(dimethylamino)phenyl]azo]benzothiazole]		1.3 µM	1.3 µM
